Assay results published in PubChem BioAssay (NCI).
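Step 1: Grow cells in 96-well plates. Step 2: Expose to compound for 48 hours at 5 concentrations. Step 3: Interpolate endpoints linearly; if unreached, use highest concentration. GI50 marks 50% less growth. TGI marks complete inhibition of growth.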

Assays:
Assay in all cases: inhibition of tumour cell growth, NCI panel, 48 h
CAKI-1 renal = test system: CAKI-1 renal
K-562 leukemia = test system: K-562 leukemia
MOLT-4 leukemia = test system: MOLT-4 leukemia
SF-268 CNS = test system: SF-268 CNS
SK-MEL-28 melanoma = test system: SK-MEL-28 melanoma
U251 CNS = test system: U251 CNS
DU-145 prostate = test system: DU-145 prostate
HCC-2998 colon = test system: HCC-2998 colon
T-47D breast = test system: T-47D breast
HL-60(TB) leukemia = test system: HL-60(TB) leukemia

Compound	TGI (CAKI-1 renal)	TGI (K-562 leukemia)	TGI (MOLT-4 leukemia)	TGI (SF-268 CNS)	TGI (SK-MEL-28 melanoma)	TGI (U251 CNS)	GI50 (CAKI-1 renal)	GI50 (DU-145 prostate)	TGI (DU-145 prostate)	GI50 (HCC-2998 colon)	TGI (HCC-2998 colon)	GI50 (K-562 leukemia)	GI50 (MOLT-4 leukemia)	GI50 (SF-268 CNS)	GI50 (SK-MEL-28 melanoma)	GI50 (T-47D breast)	TGI (T-47D breast)	GI50 (U251 CNS)	TGI (HL-60(TB) leukemia)	GI50 (HL-60(TB) leukemia)
Cn1c(=O)c2[nH]cnc2n(CC(N)=O)c1=O	> 100 µM	> 100 µM	> 100 µM	> 100 µM	> 100 µM	> 100 µM	–	–	–	–	–	–	–	–	–	–	–	–	–	–
COc1cc(-n2ccnc2)cc(OC)c1OC	55.8 µM	> 100 µM	> 100 µM	> 100 µM	> 100 µM	> 100 µM	26.7 µM	> 100 µM	> 100 µM	99.5 µM	> 100 µM	68.1 µM	42.2 µM	37.9 µM	> 100 µM	> 100 µM	> 100 µM	58.6 µM	–	–
CCN(CC)CCn1[nH]c2c3ccc(=O)cc3sc3c(NCCN)ccc1c32	11.5 µM	1.42 µM	0.383 µM	> 100 µM	3.28 µM	5.18 µM	–	–	–	–	–	–	–	–	–	–	–	–	–	–
CC(=O)N(O)Cc1ccccc1	> 100 µM	> 100 µM	> 100 µM	> 100 µM	> 100 µM	> 100 µM	–	–	–	–	> 100 µM	–	–	–	–	–	–	–	> 100 µM	–
S=C=NCCc1ccccc1	–	> 64.1 µM	–	3.65 µM	2.27 µM	2.22 µM	–	–	–	–	1.54 µM	–	–	–	–	–	–	–	2.65 µM	–
N#Cc1ccc2cc3c(cc2c1)OCO3	–	> 100 µM	> 100 µM	> 100 µM	> 100 µM	> 100 µM	–	–	–	–	> 100 µM	–	–	–	–	–	–	–	> 100 µM	–
Cn1c(=S)c2[nH]c(SCCN3C(=O)c4ccccc4C3=O)nc2n(C)c1=O	> 100 µM	> 100 µM	> 100 µM	> 100 µM	> 100 µM	> 100 µM	–	–	> 100 µM	–	–	–	–	–	–	–	> 100 µM	–	> 100 µM	–
O=C(C[P+](c1ccccc1)(c1ccccc1)c1ccccc1)C[P+](c1ccccc1)(c1ccccc1)c1ccccc1	0.357 µM	7.49 µM	4.08 µM	1.95 µM	1.29 µM	2.23 µM	0.161 µM	0.327 µM	1.3 µM	0.784 µM	2.17 µM	0.306 µM	0.292 µM	0.591 µM	0.332 µM	–	–	0.828 µM	2.57 µM	0.256 µM
C#CCN(C(=O)C(F)(F)F)c1ccc(C(=O)c2ccc(N(CC#C)C(=O)C(F)(F)F)cc2)cc1	–	62.9 µM	64.9 µM	> 100 µM	> 100 µM	> 100 µM	–	–	–	–	> 100 µM	–	–	–	–	–	–	–	40.3 µM	–
O=c1[nH]c(=O)n(C2CC(O)C(CO)O2)cc1C#Cc1ccc(F)cc1 (configuration not stated)	> 100 µM	> 100 µM	> 100 µM	> 100 µM	> 100 µM	> 100 µM	–	–	–	–	> 100 µM	–	–	–	–	–	–	–	–	–
COC(=O)/C=c1\s/c(=C\C(=O)OC)c2ccccc12	> 100 µM	> 100 µM	> 100 µM	> 100 µM	> 100 µM	> 100 µM	–	–	–	–	> 100 µM	–	–	–	–	–	–	–	> 100 µM	–
CCCCCCCC(=O)OCC(=O)[C@]1(O)Cc2c(O)c3c(c(O)c2[C@@H](OC2CC(N)C(O)C(C)O2)C1)C(=O)c1c(OC)cccc1C3=O (some centres not stated)	2.43 µM	–	–	–	0.902 µM	–	0.558 µM	0.0266 µM	0.284 µM	0.137 µM	0.767 µM	–	–	–	0.199 µM	0.0512 µM	1.2 µM	–	0.221 µM	0.0263 µM
O=C1c2ccccc2C(=O)c2c(NCC3CO3)ccc(NCC3CO3)c21 (configuration not stated)	7.79 µM	> 100 µM	0.53 µM	–	28.1 µM	8.38 µM	–	–	30.2 µM	–	> 81.4 µM	–	–	–	–	–	> 42.1 µM	–	–	–
CCOC(=O)/C(=C/c1ccc(N(CCC#N)CCC#N)cc1C)NC(=O)/C=C/c1ccccc1	> 100 µM	> 100 µM	> 100 µM	> 100 µM	> 100 µM	> 100 µM	–	–	–	–	> 100 µM	–	–	–	–	–	–	–	> 100 µM	–
Cc1cc(=O)[nH]c(CNC(=O)c2cccc(C(=O)NCc3cc(=O)[nH]c(C)n3)c2)n1	–	> 100 µM	> 100 µM	> 100 µM	> 100 µM	> 100 µM	–	–	–	–	> 100 µM	–	–	–	–	–	–	–	> 100 µM	–
CCOC(=O)C1([Se]c2ccccc2)CCCC1=O (configuration not stated)	> 100 µM	> 100 µM	57.1 µM	27.4 µM	41.9 µM	23.3 µM	–	–	–	–	> 100 µM	–	–	–	–	–	–	–	23.5 µM	–
O=C1C2C3C=C4c5ccccc5N(c5ccccc5)C4(C2C(=O)N1c1ccc(Br)cc1)[C@H]1C(=O)N(c2ccc(Br)cc2)C(=O)[C@@H]31 (some centres not stated)	81.5 µM	> 100 µM	> 100 µM	–	–	> 100 µM	–	–	–	–	–	–	–	–	–	–	–	–	> 100 µM	–
O=C(c1ccccc1)n1c(-c2ccccc2)cs/c1=N\S(=O)(=O)c1ccc(N2N=C3c4ccccc4CC3C2c2cccs2)cc1 (configuration not stated)	> 100 µM	> 100 µM	21.2 µM	> 100 µM	> 100 µM	> 100 µM	38 µM	47 µM	> 100 µM	14 µM	32.6 µM	27.6 µM	0.305 µM	> 100 µM	> 100 µM	> 100 µM	> 100 µM	32 µM	–	–
Cc1nc2sccn2c1C(=O)NC(=O)Nc1ccc(Cl)cc1	> 100 µM	> 100 µM	> 100 µM	> 100 µM	> 100 µM	> 100 µM	–	–	–	–	> 100 µM	–	–	–	–	–	–	–	> 100 µM	–
CC[N+](C)(CC)CC(C)(C)C(=O)/C=C/c1ccc(/C=C/C(=O)C(C)(C)C[N+](C)(CC)CC)cc1	> 100 µM	> 100 µM	> 100 µM	> 100 µM	> 100 µM	> 100 µM	–	–	–	–	> 100 µM	–	–	–	–	–	–	–	> 100 µM	–
COC1C2c3cc4c(cc3CC(C#N)(c3ccccc32)N1C(=O)c1ccccc1)OCO4 (configuration not stated)	–	> 100 µM	> 100 µM	> 100 µM	> 100 µM	> 100 µM	–	–	–	–	> 100 µM	–	–	–	–	–	–	–	> 100 µM	–
Cc1ccc(-c2nc([P+](c3ccccc3)(c3ccccc3)c3ccccc3)c(Nc3ccccc3)o2)cc1	2.34 µM	1.27 µM	2.06 µM	2.53 µM	2.52 µM	2.14 µM	1.08 µM	1.2 µM	2.48 µM	0.659 µM	2.02 µM	0.326 µM	0.477 µM	1.15 µM	1.22 µM	–	–	0.585 µM	1.3 µM	0.395 µM
